Source: patent publication US20240208932A1, “ARYLAMINO DERIVATIVE ESTROGEN RECEPTOR MODULATOR AND USE THEREOF” (XIZANG HAISCO PHARMACEUTICAL CO., LTD., priority 2021, published 2024)

Key:
[1] = target: ERα (Homo sapiens (Human), UniProt P03372); assay: Degradation effect of compounds on ERα in MCF-7 and CAMA-1 cells (automated western blot, 24 h); format: cell-based; conditions: ERα degradation in MCF-7 cells; for DC50: 24 hours; for Dmax at 0.1 µM: MCF7, @100 nM
Procedure: 2. Degradation Effect of Compounds on ERα in MCF-7 and CAMA-1 Cells
Breast cancer cells MCF-7 and CAMA-1 were purchased from ATCC, the cell media were all EMEM+10% FBS, and the cells were cultured in an incubator at 37° C. under 5% CO2. On the first day, the cells in an exponential phase were collected. With a 10% css-FBS phenol red-free medium, the cell suspension was adjusted to a corresponding concentration, plated at 300000 cells/well and incubated for 3 days. After 3 days, the liquid in the well was aspirated, and a 10% css-FBS phenol red-free medium containing the compound to be tested was added and cultured in an incubator at 37° C. under 5% CO2. After 24 hours, 60 μl of RIPA lysis solution (containing 1× protease inhibitor cocktail) was added to each well, lysed on ice for 15 minutes, and then centrifuged at 4° C. for 10 minutes at 12000 g. The supernatant protein samples were collected, and protein quantification was performed by a BCA method. ERα was detected using fully automatic protein expression quantitative analysis, which involved diluting the protein to be tested to 1.5 mg/mL. 4 μL of the diluted protein samples were added to 1 μL of 5×Master Mix (provided in the kit), and the prepared samples were denatured at 95° C. for 5 min and placed on ice for use. Antibody Diluent II (provided in the kit) was used to dilute the primary antibody, in which the dilution ratios of ERα (CST, 13258S) and β-actin (CST, 3700) antibodies were 1:40 and 1:500, respectively, the secondary antibody was a 1:1 mixture of goat anti-mouse and goat anti-rabbit secondary antibodies, and the chromogenic solution was a 1:1 mixture of Lumino-S and Peroxide. The prepared reagents were successively added to an assay plate according to instructions of the kit and detected on an instrument. Western blot band processing was performed using “Compass for SW”, a fully automatic protein expression quantitative analysis software, in which western blot bands were automatically simulated based on signal values. The proportion of ERα relative to the solvent control at different drug concentrations according to equation (1), wherein Acompound was the relative peak area of ERα in the treated group, and Asolvent was the relative peak area of ERα in the solvent control group.
ERα%=Acompound/Asolvent×100 equation (1)
DC50 calculation: Calculation was performed according to equation (1), and using Graphpad Prism 8.0 software, the compound concentration DC50 values at which the degradation rate of ERα was 50% were calculated using a non-linear four-parameter function (Non linear regression (curve fit)) (Table 1).

[2] = tested on: MCF-7 cells; assay: Inhibitory effect of compounds on the proliferation of MCF-7 cells (CellTiter-Glo, 7 days); format: cell-based; conditions: Homo sapiens, MCF7, 168 h, 7 days incubation
Procedure: 1. Inhibitory Effect of Compounds on the Proliferation of MCF-7 Cells
Breast cancer cells MCF-7 were purchased from ATCC, the cell media were all EMEM+10% FBS, and the cells were cultured in an incubator at 37° C. under 5% CO2. On the first day, cells in the exponential growth phase were collected and cultured in a 10% css-FBS phenol red-free medium without cytokines for 3 days. After the completion of culture, a 10% css-FBS phenol red-free medium was used to adjust the cell suspension to the corresponding concentration and same was plated to 1000 cells/well. P-estradiol and compounds of different concentrations were added. A plate without adding any reagent was taken and used as Day0 with a reading value RLUday0, determined with CellTiter-Glo kit, placed in an incubator and incubated for 7 days. After the incubation was completed, according to operation instructions for a CellTiter-Glo kit (Promega, G7573), 50 μL of CellTiter-Glo solutions, which were pre-melted and equilibrated to room temperature, were added to each well, and the mixtures were uniformly mixed for 2 min using a microplate shaker. The plate was placed at room temperature for 10 min, and then […] signal values were measured using a microplate reader (PHERAstar FSX). Chemiluminescence readouts were processed using origin9.2 software and the DoseResp function was used to calculate the GIsovalue for the inhibitory activity of compounds on the proliferation of cells (Table 1). The results were processed according to equation (1), the inhibition rate of the compound at different concentrations was calculated, and the GI50 value of the compound with a proliferation rate of 50% was calculated using origin9.2 software, wherein RLUcompound was the readout of the treated group, and RLUcontrol was the average value of the solvent control group.
Growth %=(RLUcompound−RLUday0)/(RLUcontrol−RLUday0)×100 equation (1)

[3] = target: CYP2C19 (Homo sapiens (Human), UniProt P33261); assay: CYP450 enzyme inhibition test, human liver microsomes; format: in vitro ADME; conditions: incubation concentration 0-50/100 μM
CYP2C19, sequence (P33261 whole entry): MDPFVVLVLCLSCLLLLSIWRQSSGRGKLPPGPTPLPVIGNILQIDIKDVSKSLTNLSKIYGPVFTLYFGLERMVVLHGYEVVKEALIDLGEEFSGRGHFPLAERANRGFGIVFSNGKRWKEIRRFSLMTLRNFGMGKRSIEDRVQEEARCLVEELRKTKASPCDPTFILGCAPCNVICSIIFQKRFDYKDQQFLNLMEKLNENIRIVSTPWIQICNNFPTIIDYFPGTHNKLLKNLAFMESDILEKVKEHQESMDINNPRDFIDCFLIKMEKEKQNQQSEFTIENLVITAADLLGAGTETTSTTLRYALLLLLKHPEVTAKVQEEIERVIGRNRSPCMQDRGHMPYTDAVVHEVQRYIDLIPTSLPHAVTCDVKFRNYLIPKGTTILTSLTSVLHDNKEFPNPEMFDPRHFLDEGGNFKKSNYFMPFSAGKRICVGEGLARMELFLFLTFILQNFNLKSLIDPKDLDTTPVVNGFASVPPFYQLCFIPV
Procedure: 6. CYP450 Enzyme Inhibition Test
The purpose of this study was to evaluate the effect of the test compound on the activity of five isoenzymes (CYP1A2, CYP2C9, CYP2C19, CYP2D6 and CYP3A4) of human liver microsomal cytochrome P450 (CYP) by using an in vitro testing system. The specific probe substrates of CYP450 isoenzymes were incubated with human liver microsomes and test compounds of different concentrations, and reduced nicotinamide adenine dinucleotide phosphate (NADPH) was added to initiate the reaction. After the completion of the reaction, the sample was treated and liquid chromatography-tandem mass spectrometry (LC-MS/MS) was used to quantitatively detect metabolites produced by specific substrates, changes in CYP enzyme activity were determined, and IC50 value was calculated to evaluate the inhibitory potential of the test compound on each CYP enzyme subtype.

ERα, sequence (P03372 whole entry): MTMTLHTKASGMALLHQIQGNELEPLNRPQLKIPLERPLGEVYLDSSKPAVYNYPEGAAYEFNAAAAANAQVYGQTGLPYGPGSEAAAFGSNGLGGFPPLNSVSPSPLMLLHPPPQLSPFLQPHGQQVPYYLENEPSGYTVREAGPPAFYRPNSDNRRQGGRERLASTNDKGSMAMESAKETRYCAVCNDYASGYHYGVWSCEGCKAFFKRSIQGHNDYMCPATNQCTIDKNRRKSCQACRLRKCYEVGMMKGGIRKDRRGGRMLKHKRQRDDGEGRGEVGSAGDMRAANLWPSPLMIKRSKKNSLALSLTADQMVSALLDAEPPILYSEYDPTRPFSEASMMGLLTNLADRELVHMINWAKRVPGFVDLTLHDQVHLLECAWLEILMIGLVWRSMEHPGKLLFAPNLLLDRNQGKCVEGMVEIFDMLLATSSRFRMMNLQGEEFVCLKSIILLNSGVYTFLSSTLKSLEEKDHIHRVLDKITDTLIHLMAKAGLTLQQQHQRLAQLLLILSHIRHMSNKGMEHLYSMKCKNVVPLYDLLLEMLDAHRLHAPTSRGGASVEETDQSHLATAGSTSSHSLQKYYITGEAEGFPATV

DC50 [1] [nM]	Dmax at 0.1 µM [1] [%]	GI50 [2] [nM]	IC50 [3] [nM]	SMILES
1.23	88	–	–	C[C@@H]1Cc2c([nH]c3cc(F)ccc23)[C@@H](c2c(F)cc(N[C@H]3CCN(CCCF)C3)cc2F)N1CC(F)(F)F [Compound 32, (S)—N-(3,5-difluoro-4-((1R,3R)-7-fluoro-3-methyl-2-(2,2,2-trifluoroethyl)-2,3,4,9-tetrahydro-1H-pyrido[3,4-b]indol-1-yl)phenyl)-1-(3-fluoropropyl)pyrrolidin-3-amine]
–	–	0.219	> 50000	C#Cc1ccc2c3c([nH]c2c1)[C@@H](c1c(F)cc(N[C@H]2CCN(CCCF)C2)cc1F)N(CC(F)(F)F)[C@H](C)C3 [Compound 43, (S)—N-(4-((1R,3R)-7-ethynyl-3-methyl-2-(2,2,2-trifluoroethyl)-2,3,4,9-tetrahydro-1H-pyrido[3,4-b]indol-1-yl)-3,5-difluorophenyl)-1-(3-fluoropropyl)pyrrolidin-3-amine]
0.47	70	–	–	C[C@@H]1Cc2c([nH]c3ccc(F)cc23)[C@@H](c2c(F)cc(N[C@H]3CCN(CCCF)C3)cc2F)N1CC(F)(F)F [Compound 18, (S)—N-(3,5-difluoro-4-((1R,3R)-6-fluoro-3-methyl-2-(2,2,2-trifluoroethyl)-2,3,4,9-tetrahydro-1H-pyrido[3,4-b]indol-1-yl)phenyl)-1-(3-fluoropropyl)pyrrolidin-3-amine]
